# Test results as given in PMC8580050, “Improvement of the antimicrobial potency, pharmacokinetic and pharmacodynamic properties of albicidin by incorporation of nitrogen atoms” (Chemical Science, 2021).
# Read-outs that look alike come from different tables or passages of the source.
# Experiments:
# [1] = system: S. aureus (ciprofloxacin susceptible clinical isolate); experiment: MIC, extended panel; assay type: cell-based; details: Staphylococcus aureus
# Procedure: (§1) 1.1.1 In vitro experiments
# (§2) Determination of Minimal inhibitory concentrations (MIC)
# (§3) Approved Standard M07-A9.1
# (§4) CFU mL-1. […] Albicidin and […]
# (§5) and serially diluted in DMSO (100%). […]
# (§6) in 0.1 N HCL, respectively.
# (§7) One row of each well plate served as a […]
# (§8) sterility control (only MHB II-media). […]
# (§9) adding 5 µL DMSO to several wells. […]
# (§10) for growth inhibition by naked eye.
# (§11) Microorganisms and Cell Cultures (DSMZ): […]
# (§12) Dr. Werner (Robert-Koch-Institut, Wernigerode, Germany): […]
# (§13) for the following 11 pathogenic isolates: […]
# [2] = system: K. pneumoniae (ciprofloxacin susceptible clinical isolate); experiment: MIC, extended panel; assay type: cell-based, Klebsiella pneumoniae
# Procedure: as §1, §2, §3, §4, §5, §6, §7, §8, §9, §10, §11, §12
# E. coli DNA gyrase = target: T1, E. coli DNA gyrase (Escherichia coli, UniProt P0AES4+P0AES6); experiment: E. coli gyrase supercoiling inhibition assay; assay type: biochemical; design: key: ↑: for stronger inhibition; ≈: for equal inhibition; ↓: for diminished inhibition compared to albicidin 1; details: constant concentration of 45 nM, compared to albicidin 1
# T1 construct: purchased inspiralis Limited, Norwich, UK
# T1 sequence (P0AES4 whole entry, one chain of several): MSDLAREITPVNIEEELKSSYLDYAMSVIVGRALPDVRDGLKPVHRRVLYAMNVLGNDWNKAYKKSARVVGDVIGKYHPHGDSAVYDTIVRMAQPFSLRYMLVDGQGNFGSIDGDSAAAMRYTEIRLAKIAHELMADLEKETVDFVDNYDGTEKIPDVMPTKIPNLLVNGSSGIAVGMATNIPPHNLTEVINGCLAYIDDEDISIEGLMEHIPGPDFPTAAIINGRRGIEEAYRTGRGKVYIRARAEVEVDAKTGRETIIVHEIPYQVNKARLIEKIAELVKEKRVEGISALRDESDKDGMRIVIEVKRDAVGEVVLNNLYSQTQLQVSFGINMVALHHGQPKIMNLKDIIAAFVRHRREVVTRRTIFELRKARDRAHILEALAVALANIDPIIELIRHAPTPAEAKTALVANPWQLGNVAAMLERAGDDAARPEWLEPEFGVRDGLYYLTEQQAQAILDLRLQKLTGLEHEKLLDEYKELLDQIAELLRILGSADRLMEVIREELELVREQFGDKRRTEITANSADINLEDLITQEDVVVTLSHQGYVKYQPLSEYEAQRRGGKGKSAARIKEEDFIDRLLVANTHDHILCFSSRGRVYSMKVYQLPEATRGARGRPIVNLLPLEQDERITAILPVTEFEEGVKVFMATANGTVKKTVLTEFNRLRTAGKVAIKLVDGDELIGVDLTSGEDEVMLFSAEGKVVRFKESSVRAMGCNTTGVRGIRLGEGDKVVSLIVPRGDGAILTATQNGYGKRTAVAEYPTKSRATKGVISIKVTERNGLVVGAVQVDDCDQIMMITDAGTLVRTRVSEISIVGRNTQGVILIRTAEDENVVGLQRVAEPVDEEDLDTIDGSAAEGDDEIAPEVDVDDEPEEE
# Procedure: Escherichia coli Gyrase Supercoiling Inhibition Assay
# loaded on an agarose gel.
# 2-15. […] Addition of DNA
# All derivatives were tested at a concentration of […]
# in vitro = details: plasma, pH 7.4
# Procedure: Determination of plasma stability
# Human and murine plasma aliquots (Sigma-Aldrich, Taufkirchen, Germany) were thawed and subsequently centrifuged at 3000 rpm for 10 min at 4°C. Resulting supernatant was diluted in the same volume of phosphate buffer (pH 7.4) to obtain a plasma concentration of 50% (v/v). Stock solutions of […]
# concentration of 20 µM (5% DMSO). Following incubation at 37°C ice-cold methanol containing 30% […]
# were centrifuged at 4000 rpm for 20 min at 4°C and 100 µL of supernatant were directly transferred to a fresh MS-vial. Samples were analyzed by LC/MS-MS experiments. Quantification of remaining compounds was performed by an external calibration curve of standard solutions in the range of […]
# [3] = system: E. coli DSM 1116 + 50% Human Serum; experiment: MIC determination in presence of 50% human serum; assay type: cell-based; details: Escherichia coli, DSM1116
# Excerpt: This investigation was completed by assessment of the antibacterial activity in presence of human plasma (50%) (Table 1), since high plasma protein binding can severely impair antibacterial activity and thus efficacy.
# as §1, §2, §3, §4, §5, §6, §7, §8, §9, §10, §11
# [4] = system: E. faecium (ciprofloxacin susceptible clinical isolate); experiment: microbe, parasite or virus in culture; details: Enterococcus faecium
# [5] = system: fluoroquinolone-resistant (FQR) E. coli isolate; experiment: Murine septicaemia infection model; assay type: in vivo, CD-1 mice
# Procedure: From a panel of clinical ESKAPE isolates one fluoroquinolone (FQR)-resistant E. coli strain was selected for the preparation of the infection model (Table S3 ^†). […] Bacterial payload (CFU) was measured from spleens and kidneys and compared to untreated control animals.
# Pharmacokinetic calculations
# 1.1.3 Murine septicemia infection model
# For in vivo infections study female CD-1 mice (RjOrl:SWISS, 6 weeks old) were purchased from Janvier Labs (Le Genest Saint Isle, France). The animals were allowed to acclimatize for at least seven days before the start of experiments. Group-Housing was realized in a pathogen-free, temperature- […]
# and water ad libitum throughout the study. All experimental procedures were approved by and conducted in accordance to the institutional guidelines. […]
# septicemia infection model. Following overnight incubation in Brain Heart infusion at 37°C, the strain was spin down at 2.500 rpm for 10 min. Immediately before use, bacteria pellet was resuspended in […]
# For infection procedure, mice were briefly anesthetized with continuous inhalation of isoflurane.
# 100 µl of bacterial suspension were intravenously administered. At least nine animals were used for each of the following therapeutic groups:
# - Untreated but infected animals: control group (PBS)
# - Drug candidate, dose 1 group (6 mg kg-1);
# - Drug candidate, dose 2 group (17 mg kg-1). […]
# respectively. Animals were monitored for clinical signs throughout the whole study using a 4-point body condition score analyzing weight loss, respiratory distress, hampered mobility and hunched posture. Animals were euthanized after 24 hours of infection. Spleen and kidneys from each animal were removed, weighed, and homogenized in 2 mL of PBS and used for quantitative cultures on agar
# S. Typhimurium TA100 = experiment: MIC determination (broth microdilution); assay type: cell-based, Salmonella typhimurium; details: Salmonella enterica; S. Typhimurium TA100; read-out: MIC
# Procedure: as §1, §2, §3, §4, §5, §6, §7, §8, §9, §10, §11
# [6] = system: P. aeruginosa (ciprofloxacin susceptible clinical isolate); experiment: MIC, extended panel; assay type: cell-based, Pseudomonas aeruginosa
# Procedure: as §1, §2, §3, §4, §5, §6, §7, §8, §9, §10, §11, §12, §13
# M. luteus DSM1790 = experiment: MIC determination (broth microdilution); assay type: cell-based, Micrococcus luteus; details: Micrococcus luteus, DSM1790
# Procedure: as §1, §2, §3, §4, §5, §6, §7, §8, §9, §10, §11
# M. phlei DSM 750 = experiment: MIC determination (broth microdilution); assay type: cell-based, Mycobacterium phlei; details: Mycolicibacterium phlei, DSM750
# Procedure: as §1, §2, §3, §4, §5, §6, §7, §8, §9, §10
# [7] = system: Salmonella Kentucky (ciprofloxacin resistant clinical isolate); experiment: microbe, parasite or virus in culture; assay type: cell-based
# Procedure: as §1, §2, §3, §4, §5, §6, §7, §8, §9, §10, §11, §12
# [8] = system: K. pneumoniae (ciprofloxacin resistant clinical isolate); experiment: microbe, parasite or virus in culture; assay type: cell-based; details: Klebsiella pneumoniae
# Procedure: as §1, §2, §3, §4, §5, §6, §7, §8, §9, §10, §11, §12
# Tolerability assessment = assay type: in vivo, CD-1 mice; details: intravenous injection, 50 mg kg^−1, mice
# Procedure: Application volume of 5 ml kg-1 was used. Samples of K-EDTA blood were collected from each mouse […]
# An individual blood cell count was performed for each sample. […]
# performed with help of the grimace scale to monitor any changes in facial expression. […]
# were sacrificed, and a macroscopic necropsy was performed to search for damaged organs. Data of blood cell count is given in Table S7 and reference values for measured blood cell parameters are given
# [9] = system: E. coli (ciprofloxacin resistant clinical isolate); experiment: microbe, parasite or virus in culture; assay type: cell-based, Escherichia coli
# Procedure: as §1, §2, §3, §4, §5, §6, §7, §8, §9, §10, §11, §12
# [10] = Pharmacokinetic study, i.v.
# [11] = system: S. aureus (ciprofloxacin resistant clinical isolate); experiment: microbe, parasite or virus in culture; assay type: cell-based, Staphylococcus aureus
# Procedure: as §1, §2, §3, §4, §5, §6, §7, §8, §9, §10, §11, §12, §13
# [12] = system: P. aeruginosa (ciprofloxacin resistant clinical isolate); experiment: microbe, parasite or virus in culture; assay type: cell-based; details: Pseudomonas aeruginosa
# Procedure: as §1, §2, §3, §4, §5, §6, §7, §8, §9, §10, §11, §12, §13
# [13] = system: E. faecium (ciprofloxacin resistant clinical isolate); experiment: microbe, parasite or virus in culture; assay type: cell-based; details: Enterococcus faecium
# Procedure: as §1, §2, §3, §4, §5, §6, §7, §8, §9, §10, §11, §12, §13
# E. coli BW25113 = experiment: MIC determination (broth microdilution); assay type: cell-based; details: Escherichia coli
# Procedure: as §1, §2, §3, §4, §5, §6, §7, §8, §9, §10, §11
# B. subtilis DSM 10 = experiment: MIC determination (broth microdilution); assay type: cell-based; details: Bacillus subtilis, DSM10
# Procedure: as §1, §2, §3, §4, §5, §6, §7, §8, §9, §10, §11
# E. coli DSM 1116 = experiment: MIC determination (broth microdilution); assay type: cell-based, Escherichia coli
# Procedure: as §1, §2, §3, §4, §5, §6, §7, §8, §9, §10, §11
# [14] = system: A. baumannii (ciprofloxacin resistant isolate); experiment: microbe, parasite or virus in culture; assay type: cell-based, Acinetobacter baumannii
# Procedure: as §1, §2, §3, §4, §5, §6, §7, §8, §9, §10, §11, §12, §13
# [15] = system: E. coli knockout mutants from the KEIO collection (TolC, tsx); experiment: MIC on E. coli knockout mutants (KEIO collection); assay type: cell-based; details: for MIC: Escherichia coli
# [16] = system: Salmonella Kentucky (ciprofloxacin susceptible clinical isolate); experiment: MIC, extended panel; assay type: cell-based; details: Salmonella enterica
# Procedure: as §1, §2, §3, §4, §5, §6, §7, §8, §9, §10, §11, §12
# [17] = system: E. coli (ciprofloxacin susceptible clinical isolate); experiment: MIC, extended panel; assay type: cell-based; details: Escherichia coli
# Procedure: as §1, §2, §3, §4, §5, §6, §7, §8, §9, §10, §11, §12
# [18] = 50 mg kg-1 i.v., 2-compartment analysis
compound,measurement,setting,value
COc1c(NC(=O)c2ccc(NC(=O)c3ccc(NC(=O)[C@H](Cc4c[nH]nn4)NC(=O)c4ccc(NC(=O)/C(C)=C/c5ccc(O)cc5)cc4)cn3)c(OC)c2O)ccc(C(=O)O)c1O [Compound 7],MIC,[1],0.016 µg/mL
same,"activity, times higher than 2",[2]; CIP sensitive K. pneumonia,8 times
same,MIC,[2]; Klebsiella pneumoniae,8 µg/mL
same,E. coli gyrase inhibition,E. coli DNA gyrase,↑
same,half-life at 20 µM,in vitro; human,> 4 h
same,half-life at 20 µM,in vitro; mouse,1.58 h
same,MIC,[3],0.5 µg/mL
same,MIC,[4],0.25 µg/mL
same,CFU reduction in kidney,[5]; 17 mg kg^−1 applied twice,> 2 log units
same,CFU reduction in spleen,[5]; 17 mg kg^−1 applied twice,more than 3 log units
same,survival,"[5]; 17 mg kg^−1 applied twice, lethal dose of FQR clinical isolate E. coli",all mice survived
same,survival after 24 h,"[5]; 6 and 17 mg kg^−1 i.v. twice, lethal dose of FQR resistant E. coli",survived
same,reduction of bacterial counts in kidneys,"[5]; both tested doses (6 and 17 mg kg^−1 i.v. twice), versus untreated control",> 3 log 10 CFU g^−1
same,MIC,S. Typhimurium TA100,≤ 0.016 µg/mL
same,"activity, times higher than 2",[6]; CIP sensitive P. aeruginosa,4 times
same,MIC,[6]; Pseudomonas aeruginosa,1 µg/mL
same,MIC,M. luteus DSM1790,0.031 µg/mL
same,MIC,M. phlei DSM 750,0.25 µg/mL
same,"activity, times higher compared to 2",[7]; CIP-resistant Salmonella Kentucky,8 times
same,MIC,[7]; Salmonella enterica,0.016 µg/mL
same,MIC,[8],64 µg/mL
same,adverse effects or histopathological observations (tolerability study),Tolerability assessment,did not show any adverse effects or histopathological observations
same,"activity, times higher compared to 2",[9]; CIP-resistant E. coli,4 times
same,MIC,[9]; Escherichia coli,0.016 µg/mL
same,"T1/2 kel, mean",[10]; [18],1.4 h
same,"T1/2 λz, mean",[10]; [18],8.3 h
same,plasma level as multiple of MIC for E. coli,"[10]; 50 mg kg^−1 i.v., after 24 h",higher than 5 times MIC
same,"activity, times higher compared to 2",[11]; CIP-resistant S. aureus,8 times
same,MIC,[11]; Staphylococcus aureus,0.063 µg/mL
same,MIC,[12],2 µg/mL
same,MIC,[13],32 µg/mL
same,MIC,E. coli BW25113,≤ 0.016 µg/mL
same,MIC,B. subtilis DSM 10,0.063 µg/mL
same,MIC for E. coli,"E. coli DSM 1116; E. coli, strain not given",0.016 µg/mL
same,MIC,"E. coli DSM 1116; Escherichia coli, DSM1116",≤ 0.016 µg/mL
same,MIC,[14]; Acinetobacter baumannii,0.016 µg/mL
same,"activity, times higher compared to 2",[14]; CIP-resistant A. baumannii,125 times
same,MIC,"[15]; read-out: antimicrobial activity (MIC), TolC (efflux transporter) knockout mutation",≤ 0.016 µg/mL
same,MIC,"[15]; read-out: antimicrobial activity (MIC), before TolC knockout (parent strain)",0.063 µg/mL
same,"increase of efficacy, factor",[15]; TolC knockout mutation,4
same,decrease in activity,[15]; knockout mutation of the tsx gene,10 fold
same,MIC,[16],0.016 µg/mL
same,MIC,[17],0.016 µg/mL
